Laboratory results taken from US9707267B2, “Beta-turn peptidomimetic cyclic compounds for treating dry eye” (Mimetogen Pharmaceuticals, Inc., priority 2008, dated 2017).
Several values for one entry are separate records, joined by “and”; a condition that tells them apart may be missing. Identical values can stand only once. Marks after values point to notes of the source that are not given here.

Columns and labels:
Format in all cases: in vivo
[1] = test system: Scopolamine Induced Rat Dry Eye Model; assay: Scopolamine induced rat dry eye model, tear break-up time (Example 5); conditions: for Tear Break-Up Time: ± SD
Experimental: (§1) Dry eye was induced using scopolamine hydrobromide (Sigma-Aldrich, St. Louis, Mo.), which was continuously and systemically delivered to the animals via an osmotic pump (2ML4 Alzet®; CedarLane, Burlington, Ontario) filled with scopolamine and implanted subcutaneously in the mid dorsal area between the scapulae. Scopolamine was delivered for a twenty-eight day period at 12.5 mg/day, which translated to 30.0±1.5 mg/kg via osmotic pump.
(§2) Treatments for G2-G6 continued daily for seventeen days (up to an including day twenty-one). Thereafter, treatments were terminated but the study continued for another week. During treatment, each animal was anesthetized in an isoflurane chamber. Once asleep, each animal received a 5 μL topical instillation of test article into the lower conjunctival sac of both eyes using a calibrated micropipette. If a clinical endpoint was also being tested, the test article was topically instilled at the end of the testing.
Tear break-up times were tested on day 13 (after 8 daily treatments), day 21 (after 16 daily treatments), and day 28 (after treatment was stopped for 7 days). TBUT was evaluated by instillation of 10 μL sodium fluorescein solution (0.2% in sterile saline) in the upper conjunctival sac of the anaesthetized animal. The lids were blinked manually to distribute the fluorescein with the tear film. Under the cobalt blue light of a portable slit lamp ophthalmoscope (Reichert Ophthalmic Instruments, Depew, N.Y.), the eye was held open and the time until one or more black streaks appeared in the precorneal tear film was recorded. For each eye, a minimum of triplicate readings were made with fresh fluorescein solution.

[2] = test system: Scopolamine Induced Rat Dry Eye Model; assay: Scopolamine induced rat dry eye model, mucin in tear fluid washings, ELLA (Example 5); conditions: for Tear Mucin: ± SD
Experimental: as §1, §2
Tear fluid washings were collected from all six groups of rats on day 12 (after 7 daily treatments), day 19 (after 14 daily treatments) and day 28 (after treatment was stopped for 7 days) after instillation of 5 μL sterile saline in the lower conjunctival sac of the anaesthetized animal. The lids were blinked gently to mix the tear film with the saline. The diluted tear fluid was collected with a 5 μL volume glass capillary tube (Drummond Scientific Co, Broomhall, Pa.) by capillary action from the tear meniscus in the lateral canthus. Approximately 4-5 μL were routinely collected. In very dry eyes, a second 5 μL aliquot of saline was instilled before collection.
The concentrations of mucin glycoprotein in the diluted tear fluid washings were determined by an enzyme-linked lectin assay (ELLA). A sample containing 3 μg total protein was diluted to 100 μL in carbonate buffer pH 9.2 and transferred to a 96-well polystyrene microtiter plate (Corning Life Sciences #2592, Fisher Scientific, Nepean, Ontario). A dilution series of bovine submaxillary mucin (Sigma, St. Louis, Mo.) was included on each plate as the standard. The plates were coated by evaporation at 37° C. overnight. After, the plates were washed three times with wash buffer [PBS containing 0.3% BSA, 0.05% Tween-20] then blocked for nonspecific binding with PBS containing 3% BSA and 0.05% Tween-20 at 37° C. for one hour. The wells were rinsed three times in wash buffer, and then incubated in 2 μg/mL biotinylated UEA-1 diluted in wash buffer (Vector Labs, Burlingame, Calif.) at 37° C. for one hour. The wells were rinsed three times in wash buffer, and then incubated in 1 μg/mL HRP-conjugated neutravidin diluted in wash buffer (Pierce, Rockford, Ill.) at 37° C. for one hour. After the wells were rinsed three times in wash buffer the color development was performed with TMB (Promega, Madison, Wis.) and stopped with 0.5N Sulfuric acid. The concentration of mucin in the tear fluid washings was calculated as the ng mucin divided by the volume of tear fluid washing in μL that gave 3 μg total protein.

[3] = Scopolamine induced rat dry eye model, body weights (Example 5); conditions: ± SD
Experimental: After the surgery and again the next day, the animals were subcutaneously injected with Caprofen (0.5 mg/100 g) a non-steroidal anti-inflammatory drug and potent, long-acting analgesic in rodents. Animals were weighed prior to pump implantation on Day−1, and then once a week for four weeks. This dosing regimen was reported to induce dry eye in rats (Viau S et al., “Time course of ocular surface and lacrimal gland changes in a new scopolamine-induced dry eye model,” Graefes Arch Clin Exp Ophthalmol., 246:857-867 (2008), the entire content of which is incorporated herein by reference).
There were no mortalities. […] Conjunctival congestion and conjunctival bloody discharge usually resolved the next day, but conjunctival swelling continued throughout the study. Pre-treatment, mean body weight was approximately 400 g, and was not statistically different among groups (p=0.3927) (Table 10). Mean body weight in the untreated control groups (G1) increased to approximately 575 g throughout the study. In the five groups receiving scopolamine (G2-G6), mean body weight increased to approximately 425 to 450 g. There was a statistically significant effect of treatment to decrease body weight starting on Day 14, continuing through Day 28 (p<0.0001 to 0.0426) (FIG. 24).

[4] = 0.4% topical 1× daily Days 5-21, Day 28 (7 days after treatment stopped)
[5] = 1% dose vs untreated and saline control groups
[6] = 1.0% topical 1× daily Days 5-21, Day 28 (7 days after treatment stopped)
[7] = 2.5% topical 1× daily Days 5-21, Day 28 (7 days after treatment stopped)
[8] = 0.00053% topical 1× daily Days 5-21, Day 28 (7 days after treatment stopped)

With NCCCC[C@@H]1NC(=O)[C@H](CCC(=O)O)NC(=O)c2cc([N+](=O)[O-])ccc2OCCC(C(=O)NCC(=O)O)NC1=O (stereo partly drawn) [Compound D3] the “Tear Break-Up Time” value ([1]; 0.4% topical 1× daily Days 5-21, Day 13) was 4.5 ± 1.7^b seconds, the “Tear Break-Up Time” value ([1]; 0.4% topical 1× daily Days 5-21, Day 21) was 4.4 ± 1.7 s and the “Tear Break-Up Time” value [1, 4] was 4.3 ± 0.8 s. The “changes in TBUT at Day 28 as compared to Day 13 (in words)” value [1, 5] was “statistically significantly improved TBUT”, the “Tear Break-Up Time” value ([1]; 1.0% topical 1× daily Days 5-21, Day 21) was 5.1 ± 1.9 s and the “Tear Break-Up Time” value [1, 6] was 6.4 ± 1.2 s. For the same compound, the “Tear Break-Up Time” value ([1]; 2.5% topical 1× daily Days 5-21, Day 13) was 7.0 ± 2.3 s, the “Tear Break-Up Time” value ([1]; 2.5% topical 1× daily Days 5-21, Day 21) was 5.8 ± 2.1 s and the “Tear Break-Up Time” value [1, 7] was 5.0 ± 1.3 s. The “Tear Mucin” value ([2]; 0.4% topical 1× daily Days 5-21, Day 12) was 2.7 ± 2.2 ng/µL, the “Tear Mucin” value ([2]; 0.4% topical 1× daily Days 5-21, Day 19) was 6.8 ± 3.2 ng/µL and the “Tear Mucin” value [2, 4] was 4.4 ± 3.8 ng/µL. For the same compound, the “changes in mucin production at Day 28 as compared to Day 12 (in words)” value [2, 5] was “statistically significantly increased mucin production”, the “Tear Mucin” value ([2]; 1.0% topical 1× daily Days 5-21, Day 12) was 3.3 ng/µL and 3.3 ± 1.9 ng/µL and the “Tear Mucin” value ([2]; 1.0% topical 1× daily Days 5-21, Day 19) was 9.1 ng/µL and 9.1 ± 5.1 ng/µL. For the same compound, the “Tear Mucin” value [2, 6] was 6.8 ng/µL and 6.8 ± 4.9 ng/µL, the “Tear Mucin” value ([2]; 2.5% topical 1× daily Days 5-21, Day 12) was 1.6 ± 0.9 ng/µL and the “Tear Mucin” value ([2]; 2.5% topical 1× daily Days 5-21, Day 19) was 6.5 ± 2.4 ng/µL. For the same compound, the “Tear Mucin” value [2, 7] was 3.0 ± 1.1 ng/µL.

In the case of “NGF: nerve growth factor (recombinant human), positive control”, the “Tear Break-Up Time” value ([1]; 0.00053% topical 1× daily Days 5-21, Day 13) is reported as 5.2 ± 1.6 s, the “Tear Break-Up Time” value ([1]; 0.00053% topical 1× daily Days 5-21, Day 21) is reported as 4.7 ± 0.8 s and the “Tear Break-Up Time” value [1, 8] is reported as 4.2 ± 0.8 s. The “Tear Mucin” value ([2]; 0.00053% topical 1× daily Days 5-21, Day 12) was 3.0 ± 2.3 ng/µL, the “Tear Mucin” value ([2]; 0.00053% topical 1× daily Days 5-21, Day 19) was 6.8 ± 3.8 ng/µL and the “Tear Mucin” value [2, 8] was 2.4 ± 2.0 ng/µL. For the same compound, the “Body Weights” value ([3]; 0.00053% group, Day −1, pre-treatment) was 417 ± 16 g, the “Body Weights” value ([3]; scopolamine + 0.00053% topical 1× daily Days 5-21, Day 7) was 396 ± 20 g and the “Body Weights” value ([3]; scopolamine + 0.00053% topical 1× daily Days 5-21, Day 14) was 399 ± 18 g. For the same compound, the “Body Weights” value ([3]; scopolamine + 0.00053% topical 1× daily Days 5-21, Day 20) was 417 ± 16 g and the “Body Weights” value ([3]; scopolamine + 0.00053% topical 1× daily Days 5-21, Day 29) was 438 ± 22 g.
